The values below come from article PMC8770261, “Automatic Production and Preliminary PET Imaging of a New Imaging Agent [^18F]AlF-FAPT” (Frontiers in Oncology, 2022).

The nature of this data set: Biological distribution in normal Kunming mice (γ counter, %ID/g). Type of data set: in vivo. Conditions: tail vein injection, 60 min. On the procedure: The biological distribution experiment of [^18F]AlF-FAPT was carried out in normal Kunming mice. Twenty Kunming mice were randomly and equally divided into four groups and each injected with 0.1 ml of [^18F]AlF-FAPT (1.48~2.22 MBq) through their tail vein. The mice were then sacrificed after 5, 30, 60, and 90 minutes, followed by weighing their organs and determining the radioactivity using a γ counter. The radioactivity of each organ was normalized using the percentage of injected dose per gram of tissue (% ID/g). [^18F]FAPI-42 also used the same method mentioned above to carry out the biological distribution at the time point of 60 minutes.

As to `N#C[C@@H]1CC(F)(F)CN1C(=O)CNC(=O)c1ccnc2ccc(OCCCN3CCN(C(=O)CN4CCN5CCN(CC4)CC(=O)[O][Al]([F])[O]C(=O)C5)CC3)cc12` [[^18F]FAPI-42], the “radioactivity uptake value in the gallbladder” value is 7.30 ± 1.43 %ID/g.
